pIC50: −log10 of the molar value. Read-outs that look alike come from different tables or passages of the source.
Experiments:
[1] = molecular target: T1, 20S proteasome extracted from rat liver (PGPH) (Rattus norvegicus, UniProt P28073+Q9JHW0); experiment: inhibition of 20S proteasome, PGPH activity (fluorescent peptide); assay type: biochemical; conditions: for inhibition at 0.2 µM / inhibition at 2 µM / inhibition at 20 µM: rat liver 20S proteasome, 37° C., 1 h, read-out: inhibition rates (%) PGPH
T1 construct: 20S proteasome extracted from rat liver; from tissue; host or cells: rat liver
Description: (§1) 1 μg of 20S proteasome extracted from rat liver was incubated with a 100 μL solution containing various concentrations of the present compounds, 50 μM fluorescent peptides and 20 mM Tris-HCl at 37° C. for 1 h, respectively. […] 0.1% DMSO was used as a solvent control. Compared with the fluorescence of solvent control, an inhibition rate or IC50 value was calculated.

[2] = molecular target: T2, 20S proteasome extracted from rat liver (T-L) (Rattus norvegicus, UniProt P40112+Q9JHW0); experiment: inhibition of 20S proteasome, T-L activity (fluorescent peptide); assay type: biochemical; conditions: for inhibition at 0.2 µM / inhibition at 2 µM / inhibition at 20 µM: rat liver 20S proteasome, 37° C., 1 h, read-out: inhibition rates (%) T-L
T2 construct: 20S proteasome extracted from rat liver; from tissue; host or cells: rat liver
Description: as §1

[3] = system: Hela; experiment: anti-tumor activity in vitro (IC50), MTT; assay type: cell-based; conditions: Homo sapiens, 72 h
Description: (§2) Cancer cells were cultured in vitro. When cell growth reached logarithmic phase, the cells were collected and centrifuged at 1000 rpm for 5 min, before the supernate was removed and the cells were suspended in a moderate amount of medium, and then the concentration of cell was adjusted to 3.5×10^4/mL. The cell suspension was added into a 96-well plate with 100 μL per well and cultured in a cell incubator (37° C., 5% CO2) for 24 h. Then test drugs of different end concentrations were added, and the negative control group was added DMSO (end concentration was 0.5%), while each group afforded three repetitive holes. After cultivation for another 72 h in the cell incubator, a solution containing 5 mg/ml MTT (20 μL) was added into each well and the 96-well plate was placed at 37° C. for 3 h. To each well was added 150 μL DMSO, after oscillation in a shaking table for 5 min, the optical density (OD) values at 492 nm/620 nm were measured. IC50 values were calculated by Prism Graphpad statistical software.

[4] = system: HepG2 liver cancer cells; experiment: anti-tumor activity in vitro (IC50), MTT; assay type: cell-based; conditions: Homo sapiens, 72 h; for pIC50: read-out: IC50 HepG2; for IC50: liver cancer cells, read-out: IC50 (μM) HepG2
Description: as §2

[5] = system: MGC803 stomach cancer cells; experiment: anti-tumor activity in vitro (IC50), MTT; assay type: cell-based; conditions: Homo sapiens, MGC-803, MTT, 72 h; for pIC50: read-out: IC50 MGC803; for IC50: stomach cancer cells, read-out: IC50 (μM) MGC803
Description: as §2

[6] = molecular target: T3, 20S proteasome extracted from rat liver (CT-L) (Rattus norvegicus, UniProt P18421+P28075); experiment: inhibition of 20S proteasome, CT-L activity (fluorescent peptide); assay type: biochemical; conditions: for inhibition at 0.2 µM / inhibition at 2 µM / inhibition at 20 µM: rat liver 20S proteasome, 37° C., 1 h, read-out: inhibition rates (%) CT-L
T3 construct: 20S proteasome extracted from rat liver; from tissue; host or cells: rat liver
Description: as §1

[7] = system: Hela, human cervical carcinoma; experiment: preliminary anti-tumor screening in vitro, MTT method; assay type: cell-based; conditions: read-out: inhibition rates (%) Hela
In short: (§3)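 Inhibition rates measured at 0.1, 1 or 10 μM compound; cell growth read by MTT for Hela, SRB for BGC-823, MCF-7 and A549.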

[8] = system: A549, human lung cancer; experiment: preliminary anti-tumor screening in vitro, SRB method; assay type: cell-based; conditions: read-out: inhibition rates (%) A549
In short: as §3

[9] = system: BGC-823, liver cancer; experiment: as above; assay type: cell-based; conditions: Homo sapiens, read-out: inhibition rates (%) BGC-823
In short: as §3

[10] = system: MCF-7, breast cancer; experiment: as above; assay type: cell-based; conditions: Homo sapiens, read-out: inhibition rates (%) MCF-7; for inhibition at 0.1 µM: MCF7, 0.1 μM; for inhibition at 1 µM: MCF7, 1 μM; for inhibition at 10 µM: MCF7, 10 μM
In short: as §3

Structure (SMILES)	inhibition at 0.2 µM [6]	inhibition at 2 µM [6]	inhibition at 20 µM [6]	inhibition at 0.2 µM [1]	inhibition at 2 µM [1]	inhibition at 20 µM [1]	inhibition at 0.2 µM [2]	inhibition at 2 µM [2]	inhibition at 20 µM [2]	inhibition at 0.1 µM [7]	inhibition at 1 µM [7]	inhibition at 10 µM [7]	inhibition at 0.1 µM [8]	inhibition at 1 µM [8]	inhibition at 10 µM [8]	inhibition at 0.1 µM [9]	inhibition at 1 µM [9]	inhibition at 10 µM [9]	inhibition at 0.1 µM [10]	inhibition at 1 µM [10]	also measured
CC(C)C[C@H](NC(=O)[C@H](Cc1ccccc1)NC(=O)N1CCc2ccccc2C1)B(O)O [Example 28, N-L-phenylalanyl-L-leucine borate-N′-1,2,3,4-tetrahydroisoquinoline-urea]	–	–	–	–	–	–	–	–	–	–	–	–	–	–	–	–	–	–	–	–	pIC50 [1]: 7.70; pIC50 [2]: 5.62; pIC50 [3]: 6.27; pIC50 [4]: 8.08; IC50 [4]: 0.0194 µM; pIC50 [5]: 8.30; IC50 [5]: 0.00396 µM
COc1ccc(OC)c(CNC(=O)N[C@@H](Cc2ccccc2)C(=O)N[C@@H](CC(C)C)B(O)O)c1 [Example 18, N-L-phenylalanyl-L-leucine borate-N′-(2,5-dimethoxy-benzylamine)-urea]	82.1%	96.7%	98.3%	9.81%	68.8%	97.1%	4.99%	56.9%	91%	37.8%	39.6%	46.5%	44.3%	63.5%	66%	41.4%	46.6%	50%	25.8%	37.5%	inhibition at 10 µM [10]: 47.8%; IC50 [4]: 0.0528 µM; IC50 [5]: 0.0106 µM
CC(C)C[C@H](NC(=O)[C@H](Cc1ccccc1)NC(=O)NCc1ccc(F)c(F)c1)B(O)O [Example 35, N-L-phenylalanyl-L-leucine borate-N′-3,4-difluoro-benzylamine-urea]	–	–	–	–	–	–	–	–	–	–	–	–	–	–	–	–	–	–	–	–	pIC50 [6]: 8.70; pIC50 [1]: 6.96; pIC50 [2]: 6.47; pIC50 [3]: 6.59; pIC50 [4]: 7.72; IC50 [4]: 0.0388 µM; pIC50 [5]: 7.78; IC50 [5]: 0.0067 µM
COc1ccc(OC)c(CNC(=O)N[C@@H](Cc2ccccc2)C(=O)N[C@@H](CC(C)C)B2OC3CC4CC(C4(C)C)[C@]3(C)O2)c1 (stereo partly drawn) [Example 19, N-L-phenylalanyl-L-leucine borate pinanediol ester-N′-(2,5-dimethoxy-benzylamine)-urea]	91.7%	97.3%	98.3%	16.9%	82.3%	97.2%	18.2%	69.1%	90.7%	39.8%	44%	55%	53.1%	65.6%	76.1%	43.7%	46.6%	57.2%	23.4%	38.1%	inhibition at 10 µM [10]: 61.7%; melting point: 88 to 90 °C
COc1ccc(CNC(=O)N[C@@H](Cc2ccccc2)C(=O)N[C@@H](CC(C)C)B(O)O)cc1 [Example 15, N-L-phenylalanyl-L-leucine borate-N′-(p-methoxy-benzylamine)-urea]	86.3%	95.9%	98.3%	8.45%	89.4%	96.8%	5.72%	53.5%	90.4%	39.3%	44.5%	51.8%	2.63%	11%	31.1%	7.38%	32.6%	38.4%	47.7%	65%	inhibition at 10 µM [10]: 73.8%; IC50 [4]: 0.25 µM; IC50 [5]: 0.036 µM
CC(C)C[C@H](NC(=O)N[C@@H](Cc1ccccc1)C(=O)Nc1cnccn1)B1OC2C[C@H]3C[C@H](C3(C)C)[C@@]2(C)O1 (stereo partly drawn) [Example 7, N-L-leucine borate pinanediol ester-N′-(pyrazin-2-ylcarbamoyl)-L-phenylalanine-urea]	23.4%	47.2%	82.6%	5.76%	1.95%	0.485%	-16.5%	-12.6%	25.3%	0.48%	5.11%	14.9%	-1.53%	2.54%	15.5%	2.21%	0.62%	6.88%	4.81%	7.4%	inhibition at 10 µM [10]: 11.7%; melting point: 93 to 95 °C
COc1ccc(NC(=O)[C@H](Cc2ccccc2)NC(=O)N[C@@H](CC(C)C)B2OC3C[C@H]4C[C@H](C4(C)C)[C@@]3(C)O2)cc1 (stereo partly drawn) [Example 9, N-L-leucine borate pinanediol ester-N′-(p-methoxy-phenylcarbamoyl)-L-phenylalanine-urea]	-12.2%	44.9%	76.8%	1.67%	6.26%	34.1%	1.54%	9%	21.5%	11.8%	14.3%	32.1%	4.05%	10.3%	36.2%	8.33%	7.84%	14.7%	6.66%	11.7%	inhibition at 10 µM [10]: 13.8%; melting point: 78 to 80 °C
CC(C)C[C@H](NC(=O)N[C@@H](Cc1ccccc1)C(=O)Nc1cccc(OCc2ccccc2)c1)B1OC2C[C@H]3C[C@H](C3(C)C)[C@@]2(C)O1 (stereo partly drawn) [Example 5, N-L-leucine borate pinanediol ester-N′-(3-benzyloxy-phenylcarbamoyl)-L-phenylalanine-urea]	-17.8%	-15.1%	-3.13%	2.67%	3.15%	9.71%	-5.23%	-1.52%	0.968%	7.42%	10.3%	21.8%	3.25%	10.3%	30.3%	5.47%	3.19%	8.66%	6.37%	8.84%	inhibition at 10 µM [10]: 8.44%; melting point: 78 to 80 °C

Source: US10494384B2, “Urea peptoid boric acid compound, pharmaceutical composition thereof, preparation method therefor, and uses thereof” (Peking University, priority 2015, dated 2019)
